Assay [1] deals with progesterone-induced endometrial proliferation. Put plainly: AntiMcGinty test. The following applies: for ANTIPROGESTATIONAL Anti-McGinty: relative potency, CDB-2914 = 100 (assigned), rabbit; for ANTIPROGESTATIONAL Anti-McGinty / ANTIPROGESTATIONAL ACTIVITY ANTI-MCGINITY: intraluminal; for antiprogestational activity compared with the lead compound / standard, in words: antiMcGinty (and antiClauberg), versus CDB-2914 (69B); for ANTIPROGESTATIONAL ACTIVITY ANTI-MCGINITY: estrogen-primed immature rabbits, CDB-2477 = 1.0 (assigned). It is filed as in vivo, rabbit. The procedure: AntiMcGinty Test (McGinty, et al., Endocrinology, 24:829-832 (1939))
Immature female rabbits of the New Zealand White breed (approx. 1 kg body weight) were maintained under standard laboratory conditions and received a subcutaneous injection of 5 μg estradiol in 10% ethanol/sesame oil daily for 6 consecutive days. Twenty-four hours after the last injection of estradiol (day 7) animals underwent sterile abdominal surgery to ligate a 3-4 cm segment of both uterine horns. The experimental compound in appropriate solvent (usually 10% ethanol/sesame oil) was injected intraluminally into the ligated segment of one uterine horn and the vehicle alone into the ligated segment of the contralateral horn. Injection volume was limited to 0.1 ml, and care was taken to prevent leakage. A stimulating dose of progesterone (0.8 mg/day) was administered subcutaneously to each rabbit daily for the next three days (days 7, 8 and 9) for the purpose of inducing endometrial proliferation. All animals were sacrificed on day 10 when a segment central to the ligatures was removed and fixed in 10% neutral buffered formalin and submitted for histological processing. Five micron sections stained with hematoxylin and eosin (H&E) were evaluated microscopically for the degree of endometrial glandular proliferation according to the method of McPhail (McPhail, J. Physiol., 83:145 (1934). The percent inhibition of endometrial proliferation for each rabbit was calculated and the mean of the group of five animals recorded.

The target of assay [2] is T1, progesterone receptor (estrogen-primed rabbit uterus) (Oryctolagus cuniculus, UniProt P06186).
T1 construct: preparation of cytosols for the progesterone and glucocorticoid receptor assays; from tissue; host or cells: uterus of estradiol-primed immature female New Zealand White rabbits (cytosol)
T1 sequence (P06186 1-930): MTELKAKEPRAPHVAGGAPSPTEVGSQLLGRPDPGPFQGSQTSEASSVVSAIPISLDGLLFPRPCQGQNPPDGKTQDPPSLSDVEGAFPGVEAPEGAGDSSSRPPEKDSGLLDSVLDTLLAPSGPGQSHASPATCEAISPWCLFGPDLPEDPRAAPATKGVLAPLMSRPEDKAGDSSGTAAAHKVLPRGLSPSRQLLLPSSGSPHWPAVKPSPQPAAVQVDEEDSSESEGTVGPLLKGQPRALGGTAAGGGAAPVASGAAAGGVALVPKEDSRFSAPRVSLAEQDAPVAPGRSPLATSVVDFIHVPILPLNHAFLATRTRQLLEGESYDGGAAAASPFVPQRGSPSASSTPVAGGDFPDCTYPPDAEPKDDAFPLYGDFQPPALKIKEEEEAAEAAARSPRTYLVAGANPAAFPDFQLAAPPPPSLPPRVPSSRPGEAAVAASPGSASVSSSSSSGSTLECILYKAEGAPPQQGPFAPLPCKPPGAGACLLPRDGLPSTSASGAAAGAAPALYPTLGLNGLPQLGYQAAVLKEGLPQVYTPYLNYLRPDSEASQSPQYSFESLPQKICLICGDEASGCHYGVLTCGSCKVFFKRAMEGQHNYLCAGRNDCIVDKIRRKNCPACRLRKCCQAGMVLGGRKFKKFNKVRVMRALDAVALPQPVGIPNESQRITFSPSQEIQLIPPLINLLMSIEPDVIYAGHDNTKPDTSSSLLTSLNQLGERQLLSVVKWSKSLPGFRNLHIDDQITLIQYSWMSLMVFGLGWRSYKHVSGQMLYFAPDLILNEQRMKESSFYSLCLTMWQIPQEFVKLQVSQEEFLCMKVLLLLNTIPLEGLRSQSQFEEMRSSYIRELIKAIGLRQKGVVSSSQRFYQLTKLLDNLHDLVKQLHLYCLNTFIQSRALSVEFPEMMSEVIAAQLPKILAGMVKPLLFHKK
Put plainly: Relative binding affinity, progesterone receptor. The following applies: for RELATIVE BINDING AFFINITY Progesterone / BINDING AFFINITY Progester: progesterone = 100%; for binding affinities compared with the standard, compound 69B: progesterone receptor implied (rabbit or human isoform A not specified); for binding affinity for the progesterone receptor, in words: rabbit uterine, versus CDB-2914 (69B) where stated; for BINDING AFFINITY Progester: Table 2.

Each structure is given as a SMILES string.

Consider `CN(C)c1ccc(C2CC3(C)C(CCC34OCC4=O)C3CCC4=CC(=O)CCC4=C23)cc1` (stereo not drawn) [Compound 12, 17-Spirooxetano-3′-oxo-11β-[4-(N,N-dimethylamino)phenyl]-19-norpregna-4,9-dien-3-one], for which, in assay [1], the “ANTIPROGESTATIONAL Anti-McGinty” value was found to be 26. The “RELATIVE BINDING AFFINITY Progesterone” value in assay [2] (estrogen-primed rabbit uterus) is on record as 261%. Also, the “binding affinities compared with the standard, compound 69B” value in assay [2] was “binding affinities greater than that observed for the standard”.

In the case of `CC(=O)O[C@]1(C(=O)CF)CCC2C3CCC4=CC(=O)CCC4=C3C(c3ccc(N(C)C)cc3)C[C@@]21C` (stereo partly drawn) [Compound 13, 17α-acetoxy-21-fluoro-11β-[4-(N,N-dimethylamino)phenyl]-19-norpregna-4,9-diene-3,20-dione], in assay [1], the “antiprogestational activity compared with the lead compound / standard, in words” value is “did not show significant differences” and the “ANTIPROGESTATIONAL Anti-McGinty” value stood at 103. Besides, the “RELATIVE BINDING AFFINITY Progesterone” value in assay [2] (estrogen-primed rabbit uterus) amounted to 125%. In addition, in assay [2], the “binding affinities compared with the standard, compound 69B” value is “binding affinities greater than that observed for the standard” and the “binding affinity for the progesterone receptor, in words” value (shortened to “binding affinity … in words”) was “did not show significant differences”.

On to `CC(=O)O[C@]1(C(=O)CCl)CCC2C3CCC4=CC(=O)CCC4=C3C(c3ccc(N(C)C)cc3)C[C@@]21C` (some centres unmarked) [Compound 14A], for which, in assay [1], the “antiprogestational activity compared with the lead compound / standard, in words” value is reported as “did not show significant differences” and the “ANTIPROGESTATIONAL Anti-McGinty” value worked out at 75. Also, the “RELATIVE BINDING AFFINITY Progesterone” value in assay [2] (estrogen-primed rabbit uterus) was 127%. Also, in assay [2], the “binding affinities compared with the standard, compound 69B” value was “binding affinities greater than that observed for the standard” and the “binding affinity … in words” value is “did not show significant differences”.

Consider `CC(=O)OCC(=O)[C@@]1(OC(C)=O)CCC2C3CCC4=CC(=O)CCC4=C3C(c3ccc(N(C)C)cc3)C[C@@]21C` (stereo partly drawn) [Compound 15, 17α,21-diacetoxy-11β-[4-(N,N-dimethylamino)phenyl]-19-norpregna-4,9-diene-3,20-dione], for which the “ANTIPROGESTATIONAL Anti-McGinty” value in assay [1] was 300. Besides, in assay [2] (estrogen-primed rabbit uterus), the “RELATIVE BINDING AFFINITY Progesterone” value stood at 103%.

Consider `CC(=O)O[C@]1(C(=O)CO)CCC2C3CCC4=CC(=O)CCC4=C3C(c3ccc(N(C)C)cc3)C[C@@]21C` (stereo partly drawn) [Compound 41, 17α-acetoxy-21-hydroxy-11β-[4-(N,N-dimethylamino)phenyl]-19-norpregna-4,9-diene-3,20-dione], for which the “RELATIVE BINDING AFFINITY Progesterone” value in assay [2] (estrogen-primed rabbit uterus) was determined as 62%.

As to `CC(=O)O[C@]1(C(C)=O)CC[C@H]2[C@@H]3CCC4=CC(=O)CCC4=C3[C@@H](c3ccc(N(C)C)cc3)C[C@@]21C` [Compound 69B, 17α-acetoxy-11β-(4-N,N-dimethylaminophenyl)-19-norpregna-4,9-diene-3,20-dione, reference compound], in assay [1], the “ANTIPROGESTATIONAL ACTIVITY ANTI-MCGINITY” value stood at 0.56 and the “ANTIPROGESTATIONAL Anti-McGinty” value was found to be 100. Besides, in assay [2] (estrogen-primed rabbit uterus), the “BINDING AFFINITY Progester” value came out at 122% and the “RELATIVE BINDING AFFINITY Progesterone” value came to 122%. In assay [2] (Table 3, immature estrogen-primed rabbit uterus), the “RELATIVE BINDING AFFINITY Progesterone” value was 114- %.

Regarding `CC(=O)O[C@]1(C(C)=O)CC[C@H]2[C@@H]3CCC4=CC(=O)CCC4=C3[C@@H](c3ccc(N4CCCCC4)cc3)C[C@@]21C` [Compound 71, 17α-Acetoxy-11β-[4(N-Piperidino)phenyl]-19-norpregna-4,9-diene-3,20-dione], the “BINDING AFFINITY Progester” value in assay [2] (estrogen-primed rabbit uterus) came out at 123%. Moreover, in assay [2], the “binding affinities compared with the standard, compound 69B” value was “binding affinities greater than that observed for the standard”.

Regarding `CC(=O)OCC(=O)[C@@]1(OC(C)=O)CC[C@H]2[C@@H]3CCC4=CC(=O)CCC4=C3[C@@H](c3ccc(C(C)=O)cc3)C[C@@]21C` [Compound 106b, 17α,21-Diacetoxy-11β-(4-acetylphenyl)19-norpregna-4,9-diene-3,20-dione], the “BINDING AFFINITY Progester” value in assay [2] (estrogen-primed rabbit uterus) was 136%. Also, in assay [2], the “binding affinities compared with the standard, compound 69B” value was “binding affinities greater than that observed for the standard”.

Consider `COCC(=O)[C@@]1(OC)CC[C@H]2[C@@H]3CCC4=CC(=O)CCC4=C3[C@@H](c3ccc(N(C)C)cc3)C[C@@]21C` [Compound 113a, 17α,21-Dimethoxy-11β-[4-(N,N-dimethylamino)phenyl]-19-norpregna-4,9-diene-3,20-dione], for which the “BINDING AFFINITY Progester” value in assay [2] (estrogen-primed rabbit uterus) amounted to 117%. In assay [2], the “binding affinities compared with the standard, compound 69B” value is “binding affinities greater than that observed for the standard” and the “binding affinity … in words” value is recorded as “high binding affinity”.

Turning to `COCC(=O)C1(OC(C)=O)CCC2C3CCC4=CC(=O)CCC4=C3C(c3ccc(N4CCCCC4)cc3)CC21C` (stereo not drawn) [Compound 123a, 17α-Acetoxy-1113-[4-(N-piperidino)phenyl]-21-methoxy-19-norpregna-4,9-diene-3,20-dione], in assay [2] (estrogen-primed rabbit uterus), the “BINDING AFFINITY Progester” value was 174%.

Regarding `CC#C[C@]1(O)CC[C@H]2[C@@H]3CCC4=CC(=O)CCC4=C3[C@@H](c3ccc(N(C)C)cc3)C[C@@]21C` [mifepristone], in assay [1], the “antiprogestational activity compared with the lead compound / standard, in words” value is reported as “more potent than the standard” and the “ANTIPROGESTATIONAL ACTIVITY ANTI-MCGINITY” value is on record as 1.0. Moreover, the “binding affinity … in words” value in assay [2] is on record as “greater binding affinity”.
